The values below come from patent US20090036464A1, “Treatment Of Posterior Capsule Opacification” (priority 2004, published 2009).

Experiment [1] deals with adult dermal microvascular endothelial cells. The experiment in a line: MTS cell viability, rescue by sigma-1 agonists. As to conditions: co-administration of equimolar concentrations (10 μM) of sigma-1 agonist. In kind it is cell-based, human. How it is done:
(§1) Human adult male dermal fibroblasts, adult mammary epithelial cells, adult dermal microvascular endothelial cells and bovine lens epithelial cells at low passage were exposed to 10 μM concentrations of the sigma-1 antagonists rimcazole and IPAG for up to 72 hours. Change in cell viability over time was measured in the MTS assay; data points represent mean values (±SD), obtained from wells in triplicate, expressed relative to baseline (pre-treatment) values. Graphs depict representative experiments, performed at least three times.

Experiment [2] concerns human lens cell line FHL124. The experiment in a line: FHL124 cell growth patch assay. It is filed as cell-based. The following applies: for growth of FHL124 cells: 4 days. How it is done:
The effect of sigma ligands on human lens cell growth in FHL124 cell line maintained in serum-free media (A) or EMEM supplemented with 5% FCS (B). […] The cells were cultured for 4 days with experimental conditions. Experiments were repeated on 4 occasions. Data are expressed as Mean±S.E.M., the star represents significant difference from untreated control with rimcazole, and box represents significant difference from untreated control with (±)SKF 10047 (test p<0.05).
The effect of sigma-1 ligands on human lens cell growth in FHL 124 cell line maintained in serum-free media. A represents the data of patch area measurement. B represents the dye extraction from each stained patch, ie. cell number. The cells were cultured for 4 days with experimental conditions. Experiments were repeated on 4 occasions. Data are expressed as Mean±S.E.M, the star represents significant difference from untreated control with rimcazole, and ▪ represents significant difference from untreated control with (±)SKF10047 (test p<0.05).
The growth of the spontaneously immortal human lens cell line FHL124 was investigated using a patch assay. Cells grown from a single patch derived from a coverslip and stained with dye to estimate the cell number. […] (FIG. 6). […] Attenuation of rimcazole and BD-1047-mediated growth inhibition by a highly specific sigma-1 agonist confirms that growth inhibition is at least partly mediated through antagonism of sigma-1 sites.

Experiment [3] concerns human lens epithelial cells on the posterior capsule. The experiment in a line: in vitro capsular bag growth assay (cell coverage of the posterior capsule). It is filed as cell-based. As to conditions: for growth of human lens cells on the posterior capsule: 3 μm, FIG. 2, FIG. 3. The method, then: Rate of cell coverage of the posterior capsule beyond the rhexis; 100% represents confluency. Experiments were repeated on 4 occasions. The means and standard errors are display ed.
(§2) Rate of cell coverage of the posterior capsule beyond the rhexis; 100% represents confluency. Experiments were repeated on 4 occasions.
The model previously described by Liu et al (1996) was used. A sham cataract operation was performed on human donor eyes. The resultant capsular bag was then dissected free of the zonules and secured on a sterile 35 mm PMMA petri dish. Eight entomological pins (D1: Watkins and Doncaster Ltd., Kent, UK) were inserted through the edge of the capsule to retain its circular shape. Incubation was at 35° C. in a 5% CO2 atmosphere. Ongoing observations were performed with a Nikon phase-contrast microscope and images captured with a digital camera (Coolpix 950; Nikon. Tokyo, Japan) with associated imaging software (a person, personal communication). In some cases preparations were used for radioactive isotope studies.
(§3) The bags were maintained in Eagle's minimum essential medium (EMEM) or EMEM supplemented with either 3 μM Rimcazole dihydrochloride (rimcazole), 10 μm(+)-SKF 10047 hydrochloride (SKF), and 3 μM or 10 μM BD1047 dihydrochloride (BD1047) (all supplied by TOCRIS) and incubate at 35° C. in a 5% CO2 atmosphere. The medium was replaced every 2 days and ongoing observations and analyses were performed as above.

The next experiment concerns tumour cells. The experiment in a line: tumour cell growth inhibition / killing. It is filed as cell-based, human. The following applies: read-out: IC50 (concentration of drug required to produce 50% growth inhibition) for tumour cells.
Excerpt: It has therefore been proposed that the subcellular localisation of the sigma receptor may contribute to the degree of susceptibility to sigma ligands (Spruce et al Cancer Research 2004). Without wishing to be bound by theory, the present inventors postulated that differential subcellular localisation of the sigma receptor, or other factors, could lead to sigma ligands being differentially potent in lens epithelial cells compared to tumour cells. […] Specifically, the IC50 (the concentration of drug required to produce 50% growth inhibition) of BD-1047 for tumour cells is in the region 50-100 micromolar; in contrast, the IC50 for human lens epithelial cells (in the capsular bag system) is in the region of 10 micromolar.
as §2

Experiment [4] has as its system primary human lens epithelial cells on the posterior capsule. The experiment in a line: pigmentation of lens cells during growth inhibition assays. The following applies: sub-lethal dose (3 μM), control cells remained clear, FIG. 8, 9. In kind it is cell-based. How it is done:
Phase micrographs of cultured human lens cells on central anterior (upper) and posterior capsule (lower) respectively. The cells were maintained in serum-free or supplemented (3 μM Rimcazole) media for one week. The images were converted to grayscale with Adobe photoshop software.
Formation of pigment granules in human epithelial cells. A. Different stages of pigment granule formation (I-IV) as defined in MNT-1 melanoma cells by Seiji et al. 1963. B. Cross section of human lens epithelial cells grown in (a) control medium and (b) the presence of 3 μM BD1047.
as §3
This pigmentation was also present in cells similarly tested on the rhexis (anterior capsule) removed during preparation of the capsular bag (FIG. 8) and in the FHL-124 lens cell line (not shown). […]

Experiment [5] has as its system lens epithelial cells in the presence of the bovine capsule. As to conditions: versus cells cultured in isolation; cited from earlier work.
Experiment [6] relates to bovine lens epithelial cells. The experiment in a line: in vitro cell death assay (MTS cell viability) on tissue culture plastic. It is filed as cell-based. As to conditions: 10 μM, up to 72 hours, FIG. 1. The method, then: as §1
Experiment [7] relates to human lens epithelial cells. The experiment in a line: efflux of radioactive isotopes (3H-dopamine, 14C-tyrosine) in capsular bags. In kind it is cell-based. As to conditions: capsular bag system, 3 μM rimcazole. The method, then: Efflux of (A) ^3H-dopamine and (B) ^14C-tyrosine from human lens epithelial cells in control (SF) and rimcazole supplemented media. Data are presented as mean±6 separate experiments.
Capsular bags were maintained in Eagle's minimum essential medium (EMEM) or EMEM supplemented with 3 μM. Rimcazole dihydrochloride (rimcazole) (TOCRIS) for 7 days (when the pigment granules could be observed in cells). 1 μCl/ml of ^3H-dopamine and 2 μCi/ml of ^14C-tyrosine (Amersham Biosciences) were then added to each dish for an additional 24 hours. At the end point, 10 μl of medium were collected from each dish, and transferred into scintillation vials. The bags were washed briefly twice with EMEM and fresh control or experimental media added for one hour. The medium was then collected into scintillation vials and the procedure repeated eights times. The experiment was then terminated by adding 1 ml of ice-cold 5% Trichloroacetic acid (TCA) (Fisher Chemicals) to each dish. After 30 minutes, the TCA was removed from each well to determine the cytosolic dopamine and tyrosine levels. 1 ml of 250 mM NaOH was then added to each dish to determine the radio-isotope levels in the TCA precipitable fraction. 10 mls of scintillation fluid (Hisafe Supermix) were then added to each scintillation vial and the samples assayed using a Wallac scintillation counter with appropriate background controls. […]

Regarding `CC(C)=CCN1CCC2(C)c3cc(O)ccc3CC1C2C` (single isomer, unassigned; (+)) [(+)-pentazocine], in experiment [1], the “protection of microvascular endothelial cells from rimcazole and IPAG” value was “protected”.

As to `C=CCN1CCC2(C)c3cc(O)ccc3CC1C2C.Cl` (single isomer, unassigned; (+)) [(+)-SKF10047, (+)-SKF 10047 hydrochloride], the “rescue of sigma antagonist (rimcazole)-mediated growth inhibition of FHL124 cells” value in experiment [2] (both concentrations, serum free medium, FIG. 5) is reported as “partially rescues”. The “restoration of growth to BD1047 inhibited FHL124 cells” value in experiment [2] (higher concentrations of BD1047 (10 and 30 μm), FIG. 6) is reported as “partially restores growth”. Further, the “protection of microvascular endothelial cells from rimcazole and IPAG” value in experiment [1] is reported as “protected”.

With `CN(C)CCN(C)CCc1ccc(Cl)c(Cl)c1` [BD1047], the “growth of human lens cells on the posterior capsule” value in experiment [3] is on record as “less inhibitory”. Further, in experiment [3] (10 μm, FIG. 4), the “growth of lens cells on the capsule” value is reported as “potently inhibits growth”. Moreover, the IC50 in experiment [3] (in the capsular bag system) was roughly 10 µM; with tumour cells, 50 to 100 µM. Further, in experiment [2] (lower dose (10 μm), serum-free, FIG. 6), the “growth inhibition of FHL124 cells (patch size, protein content)” value is given as “less effective”. Also, the “pigmentation of primary human lens epithelial cells” value in experiment [4] is reported as “become pigmented”.

As for `C[C@@H]1CN(CCCn2c3ccccc3c3ccccc32)C[C@H](C)N1` [Rimcazole], the “growth of human lens cells on the posterior capsule” value in experiment [3] is “inhibits growth”. Further, the “cell killing in human lens epithelial cells” value in experiment [3] (contained in the human capsular bag system) is listed as “potently induces cell killing”. The “growth of FHL124 cells” value in experiment [2] (3 and 10 μm, serum free medium, FIG. 5) is on record as “significantly inhibited”; in experiment [2] (5% FCS, higher dose (10 μm), FIG. 5) it was “growth inhibition is less marked”. In addition, the “ability to induce apoptosis in lens epithelial cells” value in experiment [5] is “substantially less able to induce apoptosis”. Further, the “susceptibility of primary bovine lens cells in tissue culture compared with tumour cells” value in experiment [6] is “almost as susceptible”. Moreover, the “pigmentation of primary human lens epithelial cells” value in experiment [4] is “become pigmented”. Further, the dopamine efflux result in experiment [7] (FIG. 10A) is listed as “unaffected”. Further, the “efflux of 14C-tyrosine from lens cells” value in experiment [7] (FIG. 10B) is reported as “no effect”.

For the compound `NC(=NC1C2CC3CC(C2)CC1C3)Nc1ccc(I)cc1` (centres unmarked) [IPAG], in experiment [6], the “susceptibility of primary bovine lens cells in tissue culture compared with tumour cells” value is reported as “almost as susceptible”.
